From ChEMBL document CHEMBL1641485, “Chromone 3-phenylcarboxamides as potent and selective MAO-B inhibitors” (Bioorg Med Chem Lett, 2011)

What was measured:
[1] = biological target: T1, Amine oxidase [flavin-containing] A (Homo sapiens, UniProt P21397); experiment: Inhibition of human recombinant MAOA expressed in baculovirus-infected BTI insect cells at 100 uM after 15 mins by fluorimetric assay; conditions: 0.25 h
T1 sequence (P21397 whole entry): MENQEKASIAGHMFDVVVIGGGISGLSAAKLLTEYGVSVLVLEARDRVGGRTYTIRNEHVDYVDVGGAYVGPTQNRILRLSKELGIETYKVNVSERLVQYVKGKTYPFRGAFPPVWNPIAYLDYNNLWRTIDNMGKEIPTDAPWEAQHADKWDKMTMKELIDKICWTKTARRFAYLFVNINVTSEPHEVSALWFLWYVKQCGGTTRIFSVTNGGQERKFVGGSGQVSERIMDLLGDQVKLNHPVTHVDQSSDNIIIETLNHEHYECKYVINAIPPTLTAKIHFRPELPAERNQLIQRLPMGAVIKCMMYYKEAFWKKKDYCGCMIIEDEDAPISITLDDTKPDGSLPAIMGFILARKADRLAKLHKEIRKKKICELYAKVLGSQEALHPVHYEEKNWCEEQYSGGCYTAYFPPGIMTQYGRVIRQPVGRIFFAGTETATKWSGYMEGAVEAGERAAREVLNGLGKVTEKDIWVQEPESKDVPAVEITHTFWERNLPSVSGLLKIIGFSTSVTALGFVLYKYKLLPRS

[2] = biological target: T2, Amine oxidase [flavin-containing] B (Homo sapiens, UniProt P27338); experiment: Inhibition of human recombinant MAOB expressed in baculovirus-infected BTI insect cells after 15 mins by fluorimetric assay; format: cell-based
T2 sequence (P27338 whole entry): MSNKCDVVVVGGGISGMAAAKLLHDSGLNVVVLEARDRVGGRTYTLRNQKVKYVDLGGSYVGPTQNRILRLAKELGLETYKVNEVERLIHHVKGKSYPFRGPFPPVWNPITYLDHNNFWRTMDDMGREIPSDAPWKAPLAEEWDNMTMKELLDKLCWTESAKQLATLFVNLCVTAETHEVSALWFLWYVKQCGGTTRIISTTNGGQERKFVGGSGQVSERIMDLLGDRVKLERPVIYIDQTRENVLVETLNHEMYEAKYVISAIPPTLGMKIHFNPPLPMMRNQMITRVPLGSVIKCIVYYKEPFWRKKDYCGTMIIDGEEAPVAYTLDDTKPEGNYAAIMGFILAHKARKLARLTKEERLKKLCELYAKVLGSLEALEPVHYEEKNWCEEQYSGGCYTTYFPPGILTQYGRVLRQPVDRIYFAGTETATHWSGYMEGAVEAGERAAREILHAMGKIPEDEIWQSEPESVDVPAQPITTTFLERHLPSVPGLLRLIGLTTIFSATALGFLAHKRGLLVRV

Homo sapiens = species: Homo sapiens; experiment: Selectivity ratio of IC50 for human recombinant MAOA to IC50 for human recombinant MAOB
[3] = biological target: T2, Amine oxidase [flavin-containing] B; experiment: Inhibition of human recombinant MAOB expressed in baculovirus-infected BTI insect cells at 100 uM after 15 mins by fluorimetric assay; conditions: 0.25 h

Row | Compound | inhibition (INH) [1] | IC50 [2] [nM] | Ratio IC50 (Homo sapiens) | inhibition (INH) [3]
1 | CSc1ccc(NC(=O)c2coc3ccccc3c2=O)cc1 | Not Active | 120 | > 833 | –
2 | COc1ccc(NC(=O)c2coc3ccccc3c2=O)cc1 | Not Active | 450 | > 222 | –
3 | CSc1ccc(NC(=O)c2cc(=O)c3ccccc3o2)cc1 | Not Active | – | – | Not Active
4 | O=C(Nc1ccccc1)c1cc(=O)c2ccccc2o1 | Not Active | – | – | Not Active

More lines, now with the values ahead:

Row | inhibition (INH) [1] | IC50 [2] [nM] | Ratio IC50 (Homo sapiens) | inhibition (INH) [3] | Compound
5 | Not Active | – | – | Not Active | Cc1ccc(NC(=O)c2cc(=O)c3ccccc3o2)cc1
6 | Not Active | – | – | Not Active | O=C(Nc1ccc(I)cc1)c1cc(=O)c2ccccc2o1
7 | Not Active | – | – | Not Active | COc1ccc(NC(=O)c2cc(=O)c3ccccc3o2)cc1
